# According to patent US12509451B2, “Heteroaryl amide inhibitors of CD38” (NAPA THERAPEUTICS LTD., priority 2020, dated 2025):
# What was measured:
# [1] = biological target: T1, recombinant mouse CD38 Protein (Mus musculus, UniProt P56528); experiment: Fluorescence-based NAD+ hydrolase activity assay with mouse recombinant CD38 protein (Assay 5); type: biochemical; conditions: read-out: Assay 5 Arithmetic mean IC50
# T1 construct: purchased R&D System
# T1 sequence (P56528 1-304): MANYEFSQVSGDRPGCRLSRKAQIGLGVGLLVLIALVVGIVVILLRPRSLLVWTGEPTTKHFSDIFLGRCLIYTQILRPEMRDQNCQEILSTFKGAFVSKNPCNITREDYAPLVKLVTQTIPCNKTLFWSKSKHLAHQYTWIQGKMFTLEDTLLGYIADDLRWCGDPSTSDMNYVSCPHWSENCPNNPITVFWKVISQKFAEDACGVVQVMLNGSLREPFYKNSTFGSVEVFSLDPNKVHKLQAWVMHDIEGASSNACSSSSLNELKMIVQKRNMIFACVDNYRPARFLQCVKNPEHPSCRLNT
# Protocol: This protocol was modified from the following references: Muller et al. (1983); Schultz et al. (2018); Matalonga et al. (2017); and de Oliveira et al. (2018), supra.
# (§1) NAD+ hydrolase activity of the mouse recombinant CD38 protein treated with test compounds was measured using a fluorescence-based assay. Briefly, recombinant mouse CD38 Protein (R&D System) was resuspended in 44 μl/well of Sucrose-Tris Buffer (Sucrose 0.25 M, Tris pH 7.4 40 mM) and plated in a 96 well black plate (CORNING) at a density of 2.5 ng/well.
# Each test compound was received in a powder state and dissolved in DMSO as a 25 mM stock solution. Each test compound was serially diluted in order to generate a dose-response curve. The dilution series of each test compound in DMSO was prepared at 50 times the concentrations to be assayed. Each test compound was diluted to generate a 5-fold dilution series of 8 concentrations from 20 μM to 0.256 nM in order to assay 8 final concentrations ranging from 400 nM to 25.6 pM. One μl of the 50× concentration compound series was added to each well of the plate containing 2.5 ng of protein in Sucrose-Tris buffer.
# Each plate had the following intra plate controls: 3 wells containing cells treated with vehicle only (DMSO), 3 wells of cells treated with the reference compounds 78c at a final concentration of 50 nM and 2 wells containing only Sucrose-Tris buffer (used as a background value).
# (§2) The reaction was started adding nicotinamide 1,N^6-etheno-adenine dinucleotide (Sigma Aldrich) to reach a final concentration of 80 µM. The samples were excited at 321-15 nm and the emission of fluorescence was measured at 410-20 nm at 37° C. every minute for 1 hr in a Clariostar Microplate® reader (BMG LABTECH). NAD+ hydrolase activity was calculated as the slope of the linear portion of the fluorescence-time curve using the MARS data analysis software (BMG LABTECH). The data were uploaded in the Collaborative Drug Design (CDD) Software and for each compound the IC50 was calculated by the software. Each compound was tested in 3 independent experiments on 3 separate days to establish the reproducibility of the results. For each plate, the z-factor was also calculated as a plate quality using the CDD software.
# [2] = biological target: T2, recombinant human CD38 Protein (Homo sapiens, UniProt P28907); experiment: Fluorescence-based NAD+ hydrolase activity assay with human recombinant CD38 protein (Assay 3); type: biochemical; conditions: read-out: Assay 3 Arithmetic mean IC50
# T2 construct: purchased R&D System
# T2 sequence (P28907 1-300): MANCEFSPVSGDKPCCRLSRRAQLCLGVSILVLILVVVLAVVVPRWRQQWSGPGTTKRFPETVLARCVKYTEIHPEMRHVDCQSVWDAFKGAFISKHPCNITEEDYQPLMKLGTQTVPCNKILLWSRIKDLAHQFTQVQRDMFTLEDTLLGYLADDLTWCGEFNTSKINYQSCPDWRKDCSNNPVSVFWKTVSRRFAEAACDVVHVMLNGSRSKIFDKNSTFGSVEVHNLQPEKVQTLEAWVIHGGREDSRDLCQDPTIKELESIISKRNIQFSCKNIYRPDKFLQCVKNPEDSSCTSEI
# Protocol: This protocol was modified from the following references (Muller et al. (1983); (Schultz et al. (2018); (Matalonga et al. (2017); and de Oliveira et al. (2018), supra.
# as §1, with “human” for “mouse”, “96-well” for “96 well”, “10” for “2.5”
# Each test compound was received in a powder state and dissolved in DMSO as a 25 mM stock solution. Each test compound was serially diluted in order to generate a dose-response curve. The dilution series of each test compound in DMSO was prepared at 50× the concentrations to be assayed. Each test compound was diluted to generate a 5-fold dilution series of 8 concentrations from 20 μM to 0.256 nM in order to assay 8 final concentrations ranging from ranging from 400 nM to 25.6 pM. One μl of the 50× concentration compound series was added to each well of the plate containing 10 ng protein in Sucrose-Tris buffer.
# as §2, with “Clariostar® microplate” for “Clariostar Microplate®”, “Each compound was tested in 3 independent experiments on 3 separate days to establish the reproducibility of the results.” left out
IC50 [1] [nM],IC50 [2] [nM],Compound
< 1,< 1,Cc1cc(C(=O)Nc2ccnc(C(N)=O)c2)nc(-n2ccnc2)c1 [Compound 55]
1 to 50,1 to 50,"Cc1ccc(-n2ccnc2)nc1C(=O)Nc1cccnc1 [Compound 59, 6-(1H-imidazol-1-yl)-3-methyl-N-(pyridin-3-yl)picolinamide]"
< 1,1 to 50,"Cc1cc(C(=O)Nc2ccc(C(N)=O)nc2)nc(-n2ccnc2)c1 [Compound 54, N-(6-carbamoylpyridin-3-yl)-6-(1H-imidazol-1-yl)-4-methylpicolinamide]"
1 to 50,1 to 50,"Cn1cncc1-c1cccc(C(=O)Nc2cccnc2)n1 [Compound 42, 6-(1-methyl-1H-imidazol-5-yl)-N-(pyridin-3-yl)picolinamide]"
< 1,1 to 50,Cc1cc(NC(=O)c2cccc(-n3ccnc3)n2)cc(C)n1 [Compound 7]
< 1,1 to 50,CNC(=O)c1cc(NC(=O)c2cc(C)cc(-n3ccnc3)n2)ccn1 [Compound 56]
< 1,< 1,CN(C)CCOc1cc(C(=O)Nc2ccnc(C(F)(F)F)c2)nc(-n2ccnc2)c1 [Compound 33]
1 to 50,1 to 50,NC(=O)c1ccc(NC(=O)c2cccc(-n3ccnc3)n2)cn1 [Compound 3]
< 1,< 1,CNC(=O)c1ccc(NC(=O)c2cc(C)cc(-n3ccnc3)n2)cn1 [Compound 57]
< 1,< 1,"O=C(Nc1ccnc(C(F)(F)F)c1)c1cc(C2CC2)nc(-n2ccnc2)n1 [Compound 51, 6-cyclopropyl-2-(1H-imidazol-1-yl)-N-(2-(trifluoromethyl)pyridin-4-yl)pyrimidine-4-carboxamide]"
< 1,1 to 50,"COc1cc(C(=O)Nc2ccnc(C(F)(F)F)c2)nc(-n2ccnc2)c1 [Compound 35, 6-(1H-imidazol-1-yl)-4-methoxy-N-(2-(trifluoromethyl)pyridin-4-yl)picolinamide]"
< 1,1 to 50,Cc1cc(C(=O)Nc2cccnc2)nc(-n2ccnc2)c1 [Compound 53]
1 to 50,1 to 50,O=C(Nc1ccncc1)c1cccc(-n2ccnc2)n1 [Compound 13]
< 1,< 1,"COc1cc(C(=O)Nc2ccnc(C(F)(F)F)c2)nc(-n2ccnc2)n1 [Compound 37, 2-(1H-imidazol-1-yl)-6-methoxy-N-(2-(trifluoromethyl)pyridin-4-yl)pyrimidine-4-carboxamide]"
1 to 50,1 to 50,Cn1cncc1-c1cccc(C(=O)Nc2ccc(C(F)(F)F)nc2)n1 [Compound 43]
1 to 50,1 to 50,COc1ccc(NC(=O)c2cccc(-n3ccnc3)n2)cn1 [Compound 18]
< 1,1 to 50,"O=C(Nc1ccnc(C(F)(F)F)c1)c1cc(OCc2ccccc2)cc(-n2ccnc2)n1 [Compound 29, 4-(benzyloxy)-6-(1H-imidazol-1-yl)-N-[2-(trifluoromethyl)pyridin-4-yl]pyridine-2-carboxamide]"
< 1,1 to 50,"Cc1cc(C(=O)Nc2ccncc2)nc(-n2ccnc2)c1 [Compound 52, 6-(1H-imidazol-1-yl)-4-methyl-N-(pyridin-4-yl)picolinamide]"
1 to 50,1 to 50,O=C(Nc1ccncn1)c1cccc(-n2ccnc2)n1 [Compound 24]

IC50 [1] [nM],IC50 [2] [nM],Compound
< 1,1 to 50,O=C(Nc1ccnc(C(F)(F)F)c1)c1cc(OC2CC2)nc(-n2ccnc2)n1 [Compound 40]
1 to 50,1 to 50,Nc1cc(C(=O)Nc2cccnc2)nc(-n2ccnc2)c1 [Compound 67]
51 to 1000,< 1,"O=C(Nc1ccnc(C(F)(F)F)c1)c1cc(OC2CC2)cc(-n2ccnc2)n1 [Compound 32, 4-cyclopropoxy-6-(1H-imidazol-1-yl)-N-(2-(trifluoromethyl)pyridin-4-yl)picolinamide]"
< 1,< 1,CCOc1cc(C(=O)Nc2ccnc(C(F)(F)F)c2)nc(-n2ccnc2)n1 [Compound 38]
1 to 50,1 to 50,Cc1ccc(NC(=O)c2cccc(-n3ccnc3)n2)cn1 [Compound 14]
1 to 50,1 to 50,Cc1cc(NC(=O)c2cccc(-n3ccnc3)n2)ccn1 [Compound 11]
< 1,1 to 50,"CC1(Oc2cc(C(=O)Nc3ccnc(C(F)(F)F)c3)nc(-n3ccnc3)c2)COC1 [Compound 34, 6-(1H-imidazol-1-yl)-4-((3-methyloxetan-3-yl)oxy)-N-(2-(trifluoromethyl)pyridin-4-yl)picolinamide]"
1 to 50,1 to 50,CC(=O)Nc1ccc(NC(=O)c2cccc(-n3ccnc3)n2)cn1 [Compound 16]
1 to 50,1 to 50,O=C(Nc1ccnc(C(F)(F)F)c1)c1cccc(-n2ccnc2)n1 [Compound 28]
1 to 50,1 to 50,O=C(Nc1cccnc1)c1ccc(F)c(-n2ccnc2)n1 [Compound 61]
1 to 50,1 to 50,O=C(Nc1ccc(C(F)(F)F)nc1)c1cccc(-n2ccnc2)n1 [Compound 9]
< 1,< 1,CNC(=O)c1ccc(NC(=O)c2cccc(-n3ccnc3)n2)cn1 [Compound 2]
1 to 50,1 to 50,O=C(Nc1cccnc1)c1cccc(-n2ccnc2)n1 [Compound 20]
1 to 50,1 to 50,CC(=O)N(C)c1ccc(NC(=O)c2cccc(-n3ccnc3)n2)cn1 [Compound 15]
1 to 50,1 to 50,COC(=O)c1ccc(NC(=O)c2cccc(-n3ccnc3)n2)cn1 [Compound 27]
1 to 50,1 to 50,O=C(Nc1ccc(F)nc1)c1cccc(-n2ccnc2)n1 [Compound 22]
1 to 50,1 to 50,Cn1ccnc1-c1cccc(C(=O)Nc2ccc(C(F)(F)F)nc2)n1 [Compound 47]
< 1,1 to 50,"O=C(Nc1ccnc(C(F)(F)F)c1)c1cc(OCC2CCOCC2)cc(-n2ccnc2)n1 [Compound 30, 6-(1H-imidazol-1-yl)-4-((tetrahydro-2H-pyran-4-yl)methoxy)-N-(2-(trifluoromethyl)pyridin-4-yl)picolinamide]"
